Measured values from patent publication US20230416248A1, “COMPOUNDS AND USES THEREOF” (Foghorn Therapeutics Inc., priority 2020, published 2023).

Tests used:
[1] = biological target: T1, BRM (Homo sapiens, UniProt P51531); assay: ATPase catalytic activity of BRM, ADP-Glo in vitro biochemical assay; settings: for IC50: ATPase catalytic activity, ADP-Glo, 30 nM BRM, 400 μM ATP; for Ratio*: ratio of BRG1 IC50 to BRM IC50
T1 construct: made in house; host or cells: High Five insect cells
In short: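 Recombinant BRM (30 nM) hydrolysed 400 μM ATP with 20 nM salmon sperm DNA in pH 8 Tris buffer containing 20 mM MgCl2, 50 mM NaCl, 0.1% Tween-20 and 1 mM DTT, 1 h at room temperature. ADP formed was quantified by ADP-Glo luminescence.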

[2] = biological target: T2, BRG-1 (Homo sapiens, UniProt P51532); assay: ATPase catalytic activity of BRG-1, ADP-Glo in vitro biochemical assay; settings: ATPase catalytic activity, ADP-Glo; 30 nM BRG-1, 400 μM ATP; read-out: BRG1 IC50
T2 construct: made in house; host or cells: High Five insect cells
In short: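 Biochemical ADP-Glo assay, BRG-1. Post-reaction: ATP depletion reagent, 40 min RT; ADP→ATP conversion/detection reagent, 60 min RT; luminescence read on plate luminometer.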

T2 sequence (P51532 whole entry): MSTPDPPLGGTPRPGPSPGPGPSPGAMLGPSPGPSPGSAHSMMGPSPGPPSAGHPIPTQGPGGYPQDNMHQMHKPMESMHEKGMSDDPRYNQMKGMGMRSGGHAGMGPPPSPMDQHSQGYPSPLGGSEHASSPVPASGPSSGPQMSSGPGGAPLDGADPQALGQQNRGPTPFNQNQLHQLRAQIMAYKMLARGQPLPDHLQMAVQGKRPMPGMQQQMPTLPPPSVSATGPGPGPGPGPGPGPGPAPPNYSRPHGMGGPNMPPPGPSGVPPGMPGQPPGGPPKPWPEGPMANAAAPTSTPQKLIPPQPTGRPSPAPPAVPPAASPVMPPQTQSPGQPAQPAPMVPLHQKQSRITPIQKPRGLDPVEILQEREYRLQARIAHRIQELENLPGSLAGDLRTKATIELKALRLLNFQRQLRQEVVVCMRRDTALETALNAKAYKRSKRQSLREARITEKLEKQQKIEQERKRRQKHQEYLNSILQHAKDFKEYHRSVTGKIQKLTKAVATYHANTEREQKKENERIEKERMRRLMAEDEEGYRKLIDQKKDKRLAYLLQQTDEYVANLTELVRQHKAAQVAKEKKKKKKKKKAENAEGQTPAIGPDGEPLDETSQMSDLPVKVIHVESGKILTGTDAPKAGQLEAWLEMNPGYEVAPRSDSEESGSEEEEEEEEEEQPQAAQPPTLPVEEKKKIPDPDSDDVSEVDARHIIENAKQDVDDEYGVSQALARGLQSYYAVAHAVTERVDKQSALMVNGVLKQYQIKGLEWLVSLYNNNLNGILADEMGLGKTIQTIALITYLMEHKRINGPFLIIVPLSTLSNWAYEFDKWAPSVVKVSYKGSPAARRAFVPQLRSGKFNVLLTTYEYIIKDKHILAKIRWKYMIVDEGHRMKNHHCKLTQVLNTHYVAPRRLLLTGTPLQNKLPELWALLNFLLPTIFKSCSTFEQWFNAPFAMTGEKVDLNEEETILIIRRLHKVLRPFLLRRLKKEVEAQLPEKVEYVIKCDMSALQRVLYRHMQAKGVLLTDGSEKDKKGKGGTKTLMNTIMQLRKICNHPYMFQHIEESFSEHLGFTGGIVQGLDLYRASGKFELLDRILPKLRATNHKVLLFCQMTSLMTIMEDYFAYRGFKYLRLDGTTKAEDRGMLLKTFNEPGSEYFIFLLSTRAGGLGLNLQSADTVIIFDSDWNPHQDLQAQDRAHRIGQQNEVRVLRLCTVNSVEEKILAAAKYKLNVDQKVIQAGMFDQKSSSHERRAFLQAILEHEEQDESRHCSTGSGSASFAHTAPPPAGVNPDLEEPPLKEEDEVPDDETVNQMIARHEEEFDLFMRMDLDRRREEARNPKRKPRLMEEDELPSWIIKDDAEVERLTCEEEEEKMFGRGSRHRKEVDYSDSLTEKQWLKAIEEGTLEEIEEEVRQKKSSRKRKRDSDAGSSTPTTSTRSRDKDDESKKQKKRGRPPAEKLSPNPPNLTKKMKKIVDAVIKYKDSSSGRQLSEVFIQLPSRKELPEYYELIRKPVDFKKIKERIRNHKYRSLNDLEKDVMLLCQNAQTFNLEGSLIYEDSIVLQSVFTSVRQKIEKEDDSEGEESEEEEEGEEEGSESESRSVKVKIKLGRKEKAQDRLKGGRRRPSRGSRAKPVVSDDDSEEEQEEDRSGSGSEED
T1 sequence (P51531 whole entry): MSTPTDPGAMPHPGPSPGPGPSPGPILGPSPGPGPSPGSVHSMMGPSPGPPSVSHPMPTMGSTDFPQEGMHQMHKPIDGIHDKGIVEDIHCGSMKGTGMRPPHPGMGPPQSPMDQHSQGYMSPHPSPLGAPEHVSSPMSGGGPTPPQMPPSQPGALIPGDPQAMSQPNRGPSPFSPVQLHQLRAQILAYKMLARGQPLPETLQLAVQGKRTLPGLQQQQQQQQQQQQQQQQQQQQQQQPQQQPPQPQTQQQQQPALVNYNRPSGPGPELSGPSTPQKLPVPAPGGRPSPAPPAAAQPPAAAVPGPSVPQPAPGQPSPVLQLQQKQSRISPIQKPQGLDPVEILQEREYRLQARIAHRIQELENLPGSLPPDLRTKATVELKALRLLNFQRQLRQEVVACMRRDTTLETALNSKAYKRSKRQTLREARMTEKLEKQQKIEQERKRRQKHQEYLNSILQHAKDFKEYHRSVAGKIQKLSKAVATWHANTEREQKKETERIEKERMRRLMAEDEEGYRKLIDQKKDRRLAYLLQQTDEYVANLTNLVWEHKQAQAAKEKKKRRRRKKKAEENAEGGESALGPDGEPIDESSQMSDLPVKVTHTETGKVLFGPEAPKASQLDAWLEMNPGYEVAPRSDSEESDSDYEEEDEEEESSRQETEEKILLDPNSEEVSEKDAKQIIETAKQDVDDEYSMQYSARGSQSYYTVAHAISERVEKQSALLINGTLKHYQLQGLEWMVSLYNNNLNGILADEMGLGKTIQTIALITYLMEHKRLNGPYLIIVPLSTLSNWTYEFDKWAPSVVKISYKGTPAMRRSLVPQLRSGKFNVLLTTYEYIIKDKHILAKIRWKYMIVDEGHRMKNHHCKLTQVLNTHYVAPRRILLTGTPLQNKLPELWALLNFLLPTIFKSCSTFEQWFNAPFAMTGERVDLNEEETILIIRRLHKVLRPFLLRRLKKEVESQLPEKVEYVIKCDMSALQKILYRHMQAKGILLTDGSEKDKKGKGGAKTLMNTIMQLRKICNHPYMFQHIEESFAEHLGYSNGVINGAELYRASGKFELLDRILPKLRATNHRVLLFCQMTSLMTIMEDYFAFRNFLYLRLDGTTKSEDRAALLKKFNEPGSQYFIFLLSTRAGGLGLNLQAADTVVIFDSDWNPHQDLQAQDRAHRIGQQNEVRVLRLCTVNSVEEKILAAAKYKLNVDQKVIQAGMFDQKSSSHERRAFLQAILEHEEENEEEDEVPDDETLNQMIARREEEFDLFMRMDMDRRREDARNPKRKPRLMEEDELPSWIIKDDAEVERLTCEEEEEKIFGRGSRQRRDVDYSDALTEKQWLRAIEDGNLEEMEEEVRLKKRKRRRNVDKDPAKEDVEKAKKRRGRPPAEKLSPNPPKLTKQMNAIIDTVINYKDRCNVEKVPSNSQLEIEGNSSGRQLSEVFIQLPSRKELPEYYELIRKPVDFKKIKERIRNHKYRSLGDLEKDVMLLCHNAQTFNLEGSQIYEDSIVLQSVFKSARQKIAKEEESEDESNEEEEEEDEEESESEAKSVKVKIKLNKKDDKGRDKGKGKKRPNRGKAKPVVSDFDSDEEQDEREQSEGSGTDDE

SMILES	IC50 [1] [nM]	Ratio* [1]	IC50 [2] [nM]
CN(CCC(F)F)c1cccc(-c2ccc3cnc(CNC(=O)c4ccc5c(c4)S(=O)(=O)CCOC5)cc3n2)n1 [Compound 460]	24.2	9.71	235
Cc1cc2c(nc1C)N(c1ccc3cnc(CNC(=O)c4ccc5c(c4)S(=O)(=O)CCOC5)cc3n1)CCC2 [Compound 463]	7.8	15.21	119
C[C@H]1COCc2ccc(C(=O)NCc3cc4nc(-c5ccnc([C@H]6CC6(F)F)n5)ccc4cn3)cc2S1(=O)=O [Compound 464]	36	27.40	986
C[C@H]1COCc2ccc(C(=O)NCc3cc4nc(-c5ccnc([C@@H]6CC6(F)F)n5)ccc4cn3)cc2S1(=O)=O [Compound 465]	102	15.25	1560
O=C(NCc1cc2nc(-c3ccc4c(n3)N3CCOCC3C4)ccc2cn1)c1ccc2c(c1)S(=O)(=O)CCOC2 (stereo not drawn) [Compound 466]	122	6.83	832
C[C@@H]1CCc2ccc(-c3ccc4cnc(CNC(=O)c5ccc6c(c5)S(=O)(=O)CCOC6)cc4n3)nc2N1C [Compound 467]	23.6	4.32	102
C[C@H]1CCc2ccc(-c3ccc4cnc(CNC(=O)c5ccc6c(c5)S(=O)(=O)CCOC6)cc4n3)nc2N1C [Compound 468]	24.9	7.67	191
O=C(NCc1cc2nc(N3CCCCc4cccnc43)ccc2cn1)c1ccc2c(c1)S(=O)(=O)CCOC2 [Compound 469]	2340	1.82	4260
C[C@H](C1COC1)N(C)c1cccc(-c2ccc3cnc(CNC(=O)c4ccc5c(c4)S(=O)(=O)CCOC5)cc3n2)n1 [Compound 470]	74.8	12.76	954
C[C@@H](C1COC1)N(C)c1cccc(-c2ccc3cnc(CNC(=O)c4ccc5c(c4)S(=O)(=O)CCOC5)cc3n2)n1 [Compound 471]	167	5.29	884
O=C(NCc1cc2nc(-c3cccc(C45COCC4C5)n3)ccc2cn1)c1ccc2c(c1)S(=O)(=O)CCOC2 (stereo not drawn) [Compound 472]	25	14.93	373
O=C(NCc1cc2nc(N3CCCc4cc(C(F)F)cnc43)ccc2cn1)c1ccc2c(c1)S(=O)(=O)CCOC2 [Compound 473]	10.9	13.46	147
C[C@@H]1CN(c2cccc(-c3ccc4cnc(CNC(=O)c5ccc(CC(C)(F)F)c(S(C)(=O)=O)c5)cc4n3)n2)C[C@H](C)O1 [Compound 474]	230	20.44	4690
C/C(F)=C/c1ccc(C(=O)NCc2cc3nc(-c4cccc(N5C[C@@H](C)O[C@@H](C)C5)n4)ccc3cn2)cc1S(C)(=O)=O [Compound 475]	215	7.79	1680
COC[C@@H]1CCc2ccc(-c3ccc4cnc(CNC(=O)c5ccc6c(c5)S(=O)(=O)CCOC6)cc4n3)nc2N1C [Compound 476]	3.7	9.82	36.6
COC[C@H]1CCc2ccc(-c3ccc4cnc(CNC(=O)c5ccc6c(c5)S(=O)(=O)CCOC6)cc4n3)nc2N1C [Compound 477]	45.2	6.50	293
O=C(NCc1cc2nc(N3CCCc4c(Cl)ccnc43)ccc2cn1)c1ccc2c(c1)S(=O)(=O)CCOC2 [Compound 478]	25.5	9.80	250
CC(F)(F)CN1CCOc2c(-c3ccc4cnc(CNC(=O)c5ccc6c(c5)S(=O)(=O)CCOC6)cc4n3)cccc21 [Compound 479]	48.3	3.92	189
CO[C@@H]1C[C@H]1N(C)c1cccc(-c2ccc3cnc(CNC(=O)c4ccc5c(c4)S(=O)(=O)CCOC5)cc3n2)n1 [Compound 480]	5.1	11.83	60.2
O=C(NCc1cc2nc(N3CCOc4cc(C5CC5)ccc43)ccc2cn1)c1ccc2c(c1)S(=O)(=O)CCOC2 [Compound 481]	13.2	8.58	113
CCO[C@H]1CCS(=O)(=O)c2cc(C(=O)NCc3cc4nc(-c5cccc(N6C[C@@H](C)O[C@@H](C)C6)n5)ccc4cn3)ccc2C1 [Compound 482]	23.1	10.09	234
C[C@@H]1CN(c2cccc(-c3ccc4cnc(CNC(=O)c5ccc6c(c5)S(=O)(=O)CC[C@@H]6C)cc4n3)n2)C[C@H](C)O1 [Compound 483]	43.8	27.99	1230
C[C@@H]1CN(c2cccc(-c3ccc4cnc(CNC(=O)c5cc(Cl)c6c(c5)S(=O)(=O)[C@@H](C)CCO6)cc4n3)n2)C[C@H](C)O1 [Compound 484]	13.7	21.16	289

SMILES	IC50 [1] [nM]	Ratio* [1]	IC50 [2] [nM]
CCOC1CCS(=O)(=O)c2cc(C(=O)NCc3cc4nc(-c5cccc(N6CC(C)OC(C)C6)n5)ccc4cn3)ccc2C1 (stereo not drawn) [Compound 485]	13	14.45	189
COc1cccc(-c2ccc3cnc(CNC(=O)c4ccc5c(c4)S(=O)(=O)CCOC5)cc3n2)n1 [Compound 487]	21.9	15.66	344
CN1CCCc2ccc(-c3ccc4cnc(CNC(=O)c5ccc6c(c5)S(=O)(=O)CCOC6)cc4n3)nc21 [Compound 488]	12.7	7.17	90.8
CCOc1nc(-c2ccc3cnc(CNC(=O)c4ccc5c(c4)S(=O)(=O)CCOC5)cc3n2)ccc1C(F)F [Compound 489]	15.9	11.37	181
C[C@@H]1CN(c2cccc(-c3ccc4cnc(CNC(=O)c5ccc6c(c5)S(=O)(=O)CC[C@H]6C)cc4n3)n2)C[C@H](C)O1 [Compound 490]	56.1	14.02	787
Cc1cnc2c(c1)OCCN2c1ccc2cnc(CNC(=O)c3ccc4c(c3)S(=O)(=O)CCOC4)cc2n1 [Compound 491]	5.8	10.83	62.8
COc1cccc2c1CCCN2c1ccc2cnc(CNC(=O)c3ccc4c(c3)S(=O)(=O)CCOC4)cc2n1 [Compound 492]	4.4	4.38	19.1
CCOc1nc(-c2ccc3cnc(CNC(=O)c4ccc5c(c4)S(=O)(=O)CCOC5)cc3n2)ccc1Cl [Compound 493]	179	5.15	921
C[C@@H]1CCS(=O)(=O)c2cc(C(=O)NCc3cc4nc(-c5cccc(N6C[C@@H](C)O[C@@H](C)C6)n5)ccc4cn3)cc(F)c2O1 [Compound 494]	22.4	4.39	98.5
C[C@@H]1CN(c2cccc(-c3ccc4cnc(CNC(=O)c5cc(F)c6c(c5)S(=O)(=O)CC[C@H](C)O6)cc4n3)n2)C[C@H](C)O1 [Compound 495]	63.1	15.54	981
COC1CCN(c2ccc3cnc(CNC(=O)c4ccc5c(c4)S(=O)(=O)CCOC5)cc3n2)c2ncccc21 (stereo not drawn) [Compound 496]	157	15.21	2390
CCOc1nc(-c2ccc3cnc(CNC(=O)c4ccc5c(c4)S(=O)(=O)[C@@H](C)COC5)cc3n2)ccc1F [Compound 497]	25.9	15.92	411
CC1CN(c2cccc(-c3ccc4cnc(CNC(=O)c5ccc6c(c5)S(=O)(=O)C(C)CN6C)cc4n3)n2)CC(C)O1 (stereo not drawn) [Compound 498]	26.6	16.52	439
O=C(NCc1cc2nc(-c3ccc4c(n3)OCCC4)ccc2cn1)c1ccc2c(c1)S(=O)(=O)CCOC2 [Compound 499]	290	4.12	1190
C[C@@H]1CN(c2cccc(-c3ccc4cnc(CNC(=O)c5ccc6c(c5)S(=O)(=O)[C@@H](C)C6)cc4n3)n2)C[C@H](C)O1 [Compound 500]	208	16.91	3520
CCOc1nc(-c2ccc3cnc(CNC(=O)c4ccc5c(c4)S(=O)(=O)CCOC5)cc3n2)ccc1C [Compound 501]	9.9	13.59	135
C[C@@H]1CN(c2cccc(-c3ccc4cnc(CNC(=O)c5ccc6c(c5)S(=O)(=O)[C@H](C)C6)cc4n3)n2)C[C@H](C)O1 [Compound 502]	8	14.99	120
O=C(NCc1cc2nc(N3CCOc4cc(C5CC5)cnc43)ccc2cn1)c1ccc2c(c1)S(=O)(=O)CCOC2 [Compound 503]	5.8	12.62	73.7
CC1CCN(c2ccc3cnc(CNC(=O)c4ccc5c(c4)S(=O)(=O)CCOC5)cc3n2)c2ncccc21 (stereo not drawn) [Compound 504]	28.6	7.45	213
C[C@@H]1CN(c2cccc(-c3ccc4cnc(CNC(=O)c5cc(Cl)c6c(c5)S(=O)(=O)CC[C@H](C)O6)cc4n3)n2)C[C@H](C)O1 [Compound 506]	49.2	13.12	645
COC[C@H](NC(=O)c1ccc2c(c1)S(=O)(=O)CCOC2)c1cc2nc(-c3cccc(C4CC4)n3)ccc2cn1 [Compound 507]	387	6.28	2430
O=C(NCc1cc2nc(N3CCOc4cc(C(F)F)cnc43)ccc2cn1)c1ccc2c(c1)S(=O)(=O)CCOC2 [Compound 508]	13.1	10.53	137
